Measurements as given in the supplement of paper PMC13380429.

Key:
Conditions in all cases: 72 h
Caco-2 [1] = assay: cell viability relative to DMSO; higher = less toxic
Calu-3 [2] = assay: as above
HepG2 [3] = assay: as above
U2OS [4] = assay: as above
Vero E6 [5] = assay: as above
Caco-2 [6] = assay: relative viability EC50 (midpoint between 100% and the lowest measured viability); higher = less toxic
Calu-3 [7] = assay: as above
HepG2 [8] = assay: as above
U2OS [9] = assay: as above
Vero E6 [10] = assay: as above
Caco-2 [11] = assay: drug sensitivity score (DSS) for viability; higher = more toxic; extreme values may be limits of the assay
Calu-3 [12] = assay: as above
HepG2 [13] = assay: as above
U2OS [14] = assay: as above
Vero E6 [15] = assay: as above

SMILES | cell viability (Caco-2 [1]; 1 nM) | cell viability (Caco-2 [1]; 10 nM) | cell viability (Caco-2 [1]; 100 nM) | cell viability (Caco-2 [1]; 1000 nM) | cell viability (Caco-2 [1]; 10000 nM) | cell viability (Calu-3 [2]; 1 nM) | cell viability (Calu-3 [2]; 10 nM) | cell viability (Calu-3 [2]; 100 nM) | cell viability (Calu-3 [2]; 1000 nM) | cell viability (Calu-3 [2]; 10000 nM) | cell viability (HepG2 [3]; 1 nM) | cell viability (HepG2 [3]; 10 nM) | cell viability (HepG2 [3]; 100 nM) | cell viability (HepG2 [3]; 1000 nM) | cell viability (HepG2 [3]; 10000 nM) | cell viability (U2OS [4]; 1 nM) | cell viability (U2OS [4]; 10 nM) | cell viability (U2OS [4]; 100 nM) | cell viability (U2OS [4]; 1000 nM) | cell viability (U2OS [4]; 10000 nM) | cell viability (Vero E6 [5]; 1 nM) | cell viability (Vero E6 [5]; 10 nM) | cell viability (Vero E6 [5]; 100 nM) | cell viability (Vero E6 [5]; 1000 nM) | cell viability (Vero E6 [5]; 10000 nM) | relative viability EC50 (Caco-2 [6]) | relative viability EC50 (Calu-3 [7]) | relative viability EC50 (HepG2 [8]) | relative viability EC50 (U2OS [9]) | relative viability EC50 (Vero E6 [10]) | drug sensitivity score (Caco-2 [11]) | drug sensitivity score (Calu-3 [12]) | drug sensitivity score (HepG2 [13]) | drug sensitivity score (U2OS [14]) | drug sensitivity score (Vero E6 [15])
CC(C)[C@@]1(NC(=O)[C@@H]2C[C@@H]3c4cccc5[nH]cc(c45)C[C@H]3N(C)C2)O[C@@]2(O)[C@@H]3CCCN3C(=O)[C@H](Cc3ccccc3)N2C1=O [dihydroergocristine] | 105% | 100% | 89.3% | 102% | 91.7% | 92.6% | 97.5% | 99% | 93.3% | 94.9% | 103% | 95.1% | 95.8% | 100% | 86.4% | 96.3% | 100% | 99.2% | 98.2% | 96.4% | 102% | 100% | 102% | 99% | 99.5% | > 10 µM | > 10 µM | > 10 µM | > 10 µM | > 10 µM | 0 | 0 | 0.1 | 0 | 0
CC(=O)Oc1cccc(C(=O)O)c1OC(C)=O [dipyrocetyl] | 99.9% | 90.2% | 100% | 97% | 92% | 93.8% | 92.9% | 85.2% | 99.8% | 86.8% | 96% | 95.9% | 97.8% | 89.5% | 96.9% | 103% | 96.8% | 101% | 101% | 101% | 101% | 105% | 103% | 99.4% | 101% | > 10 µM | > 10 µM | > 10 µM | > 10 µM | > 10 µM | 0 | 0 | 0 | 0 | 0
Cc1ccccc1NC(=N)Nc1ccccc1C [ditolylguanidine] | 96.5% | 100% | 103% | 95.6% | 88.3% | 103% | 104% | 95.8% | 103% | 90.4% | 100% | 96.1% | 97.7% | 94.3% | 97.9% | 98.8% | 104% | 94.6% | 102% | 94.7% | 96.4% | 104% | 95.6% | 100% | 95.6% | > 10 µM | > 10 µM | > 10 µM | > 10 µM | > 10 µM | 0.2 | 0 | 0 | 0 | 0
Cc1cc(Oc2ccc3nc(COc4ccc(CC5SC(=O)NC5=O)cc4)n(C)c3c2)cc(C)c1N (stereo not given) [efatutazone] | 102% | 97.6% | 97.1% | 97.3% | 97.4% | 106% | 102% | 104% | 105% | 99.2% | 105% | 99.5% | 106% | 104% | 103% | 98.3% | 104% | 97.5% | 106% | 97.6% | 95.4% | 86% | 87.5% | 87.1% | 85.3% | > 10 µM | > 10 µM | > 10 µM | > 10 µM | > 10 µM | 0 | 0 | 0 | 0 | 3.6
CC(/C=C1\SC(=S)N(CC(=O)O)C1=O)=C\c1ccccc1 [epalrestat] | 92.6% | 87.2% | 95.8% | 104% | 98.8% | 102% | 96.8% | 96.7% | 97.8% | 107% | 100% | 96.4% | 102% | 95.6% | 106% | 99.4% | 98.1% | 98.4% | 103% | 100% | 98.3% | 95.4% | 94.7% | 101% | 102% | > 10 µM | > 10 µM | > 10 µM | > 10 µM | > 10 µM | 0 | 0 | 0 | 0 | 0
C=C1/C(=C\C=C2/CCC[C@]3(C)[C@@H]([C@H](C)/C=C/[C@H](C)C(C)(C)O)CC[C@@H]23)C[C@@H](O)C[C@@H]1O [ercalcitriol] | 97.7% | 110% | 106% | 96.4% | 94.6% | 106% | 99.2% | 101% | 99% | 100% | 104% | 107% | 104% | 104% | 84.7% | 104% | 99.7% | 99.4% | 95.7% | 91.5% | 99% | 99.6% | 88.5% | 98.1% | 94.9% | > 10 µM | > 10 µM | > 10 µM | > 10 µM | > 10 µM | 0 | 0 | 0.1 | 0 | 0
CC(=O)O[C@H]1Cc2ccccc2N(C(N)=O)c2ccccc21 [eslicarbazepine-acetate] | 104% | 99.9% | 91.3% | 95.5% | 89% | 98.9% | 98.4% | 108% | 102% | 111% | 90.4% | 85.9% | 95.9% | 93.8% | 101% | 97.5% | 93.6% | 95.2% | 96.7% | 101% | 96.9% | 99.7% | 96.3% | 98.9% | 98.2% | > 10 µM | > 10 µM | > 10 µM | > 10 µM | > 10 µM | 0 | 0 | 0 | 0 | 0
CC(O)(P(=O)(O)O)P(=O)(O)O [etidronic-acid] | 103% | 91.5% | 103% | 98.2% | 104% | 93.2% | 103% | 109% | 92.1% | 105% | 92.3% | 105% | 105% | 100% | 94.6% | 102% | 97% | 98.6% | 103% | 102% | 92.7% | 91.1% | 96.1% | 90.1% | 95.8% | > 10 µM | > 10 µM | > 10 µM | > 10 µM | > 10 µM | 0 | 0 | 0 | 0 | 0
O=S1(=O)c2cccc3cccc(c23)N1CCCN1CCN(c2ccc(F)cc2)CC1 [fananserin] | 105% | 102% | 100% | 100% | 96.7% | 108% | 89.5% | 94.2% | 111% | 104% | 96.4% | 106% | 107% | 94% | 95.4% | 101% | 102% | 100% | 103% | 99.3% | 96.8% | 96.9% | 98.1% | 91.8% | 94.6% | > 10 µM | > 10 µM | > 10 µM | > 10 µM | > 10 µM | 0 | 0 | 0 | 0 | 0
O=c1c(O)c(-c2ccc(O)c(O)c2)oc2cc(O)ccc12 [fisetin] | 96.8% | 104% | 95.3% | 96.8% | 92.8% | 93.2% | 90.1% | 95.3% | 101% | 83.2% | 95% | 111% | 104% | 107% | 105% | 97.5% | 97.6% | 102% | 94.8% | 98% | 93.3% | 97.9% | 91.3% | 97.1% | 103% | > 10 µM | > 10 µM | > 10 µM | > 10 µM | > 10 µM | 0 | 0.3 | 0 | 0 | 0
Cc1c(-c2ccccc2)oc2c(C(=O)OCCN3CCCCC3)cccc2c1=O [flavoxate] | 89.1% | 91.5% | 92.9% | 97.1% | 108% | 94.9% | 91.9% | 91.7% | 105% | 110% | 102% | 99.2% | 104% | 98.3% | 96.1% | 97.3% | 101% | 93% | 104% | 98.8% | 98.1% | 91.7% | 96.2% | 94.1% | 107% | > 10 µM | > 10 µM | > 10 µM | > 10 µM | > 10 µM | 0 | 0 | 0 | 0 | 0
C[C@@H]1C[C@H]2[C@@H]3C[C@H](F)C4=CC(=O)C=C[C@]4(C)[C@@]3(F)[C@@H](O)C[C@]2(C)[C@@]1(O)C(=O)COC(=O)C(C)(C)C [flumethasone-pivalate] | 121% | 103% | 122% | 94.9% | 89% | 113% | 102% | 106% | 94.3% | 100% | 82.4% | 100% | 87.4% | 103% | 82.6% | 106% | 102% | 102% | 97.6% | 101% | 96.6% | 95.3% | 101% | 96.3% | 84.5% | > 10 µM | > 10 µM | > 10 µM | > 10 µM | > 10 µM | 0.1 | 0 | 0.3 | 0 | 0.6
C[C@@H]1C[C@H]2[C@@H]3C[C@H](F)C4=CC(=O)C=C[C@]4(C)[C@@]3(F)[C@@H](O)C[C@]2(C)[C@@]1(O)C(=O)CO [flumethasone] | 84.6% | 94.5% | 106% | 94.1% | 103% | 95.5% | 100% | 106% | 92.2% | 101% | 96.8% | 109% | 96.1% | 91.2% | 91.8% | 96.6% | 93.5% | 98.1% | 92.1% | 92.7% | 107% | 105% | 97% | 105% | 101% | > 10 µM | > 10 µM | > 10 µM | > 10 µM | > 10 µM | 0 | 0 | 0 | 0 | 0
